# Marks after values point to notes of the source that are not given here.
# Legend:
# Details in all cases: hop acids 2 ppm, monensin 6 ppm
# total bacteria = assay: In vitro microbe measurements: bacterial purine (measurement of total bacteria); assay type: cell-based
# From the text: Proprionate is largely responsible for animal growth. […] There appears to be no effect on alfalfa protozoa and alfalfa bacterial purine by the beta acids. Again, reduction in protozoa and bacteria levels means more food and energy for animal growth.
# Isotrichia = assay: In vitro microbe measurements: protozoa count, Isotrichia
# Entodiniomorph spp = assay: In vitro microbe measurements: protozoa count, Entodiniomorph spp / Entodinia
smiles,measurement,setting,value
CC[C@@]1([C@@H]2O[C@@H]([C@H]3O[C@@](O)(CO)[C@H](C)C[C@@H]3C)C[C@@H]2C)CC[C@H]([C@]2(C)CC[C@]3(C[C@H](O)[C@@H](C)[C@@H]([C@@H](C)[C@@H](OC)[C@H](C)C(=O)O)O3)O2)O1 [monensin],Bacterial purines,total bacteria; alfalfa,2.6^c mg/tube
same,"Protozoa and bacterial purines versus control, in words",total bacteria; alfalfa,most effectively eliminate
same,Bacterial purines,total bacteria; barley,1.5^b mg/tube
same,Bacterial purines,total bacteria; corn,1.4^a Mg/tube
same,"Protozoa, Isotrichia",Isotrichia; alfalfa,0^c × 10^3 no/mL
same,"Protozoa, Isotricha",Isotrichia; barley,0 × 10^3 no/mL
same,"Protozoa, Isotricha",Isotrichia; corn,0.7 × 10^3 no/mL
same,"Protozoa, Entodinia",Entodiniomorph spp; alfalfa,6^c × 10^3 no/mL
same,"Protozoa, Entodinia",Entodiniomorph spp; barley,38^b × 10^3 no/mL
same,"Protozoa, Entodinia",Entodiniomorph spp; corn,28^bc × 10^3 no/mL
